Assay results as given in patent US20250136649A1, “HONEY TRUFFLE SWEETENER (HTS) VARIANTS” (MYCOTECHNOLOGY, INC., priority 2023, published 2025).
Like-named read-outs stand apart in the source and are kept apart here. One block for each compound: values may come before it.

Assays:
sweet taste response = test: Concentration-response functions for sweet taste (Opertech Bio); assay type: in vivo; conditions: for Relative to Sucrose (mM): equivalency to sucrose on a molar basis; for Relative to Sucrose (mg/ml): equivalency to sucrose on a weight basis; for EC50: half-maximal sweet taste response
Procedure: Each data point in the curves for mycodulcein, aspartame, thaumatin, rebaudioside A was calculated as the average across 32 replicates and averaged across 16 replicates for the sucrose curve; error bars are SEM. Points for water and sucrose controls were similarly calculated as the average across 128 and 64 replicates, respectively. Curves were fit by non-linear regression.
Opertech Bio (Philadelphia, PA) performed a quantitative characterization of the concentration-dependence of the taste properties of the purified his-tagged mycodulcein HTS (SEQ ID NO:141 with His-tag, SEQ ID NO:142) obtained from E. coli as described in Example 5 and purified as described in Example 4. The sweet-taste potency and relative efficacy of mycodulcein (HTS) was compared with sucrose and with other sweeteners thaumatin, rebaudioside A, and aspartame. Control standards were solutions of 200 mM sucrose, 100 mM NaCl, 0.5 mM quinine, and 10 mM citric acid. […] Each data point in the curves for mycodulcein, aspartame, thaumatin, and rebaudioside A was calculated as the average across 32 replicates and averaged across 16 replicates for the sucrose curve; error bars are SEM. Points for water and sucrose controls were similarly calculated as the average across 128 and 64 replicates, respectively. Curves were fit by non-linear regression.
The concentrations that elicit half-maximal sweet taste response (EC50s, or potencies) were derived from the nonlinear regression. […] Also provided are the equivalencies to sucrose on a molar basis and on a weight basis.

sweet sensation = test: CATA time intensity of the sweet sensation in water; assay type: in vivo, human
Procedure: Evaluation of thaumatin, sucrose, and his-tagged mycodulcein (HTS) was carried out using a CATA (click all that apply) time intensity of the sweet sensation of named analytes in water at 0.045 mg/mL for proteins and 10% sucrose. Methodology: Time Intensity Technique; Data collection software: EyeQuestion, responses recorded every 2.57 seconds; Scaling Method: a 15-point sweet scale, e.g., score 5=5% sucrose, score 10=10% sucrose; Evaluation Protocol: small volume sip, tilt and spit test. There were 3-6 panelists and 2 replicates. All samples were blinded and presented with randomized 3-digit codes. Training Strategies: An intense training on sweet scale over 6 weeks on 15-point sweet scale to confidently assign sweet values. Due to unique sweet behavioral patterns, it is necessary to train time intensity principles over 3 weeks. Samples were tasted with a stopwatch to note times and help reach a consensus. # of Panelists: 3-6, # of replications: 2. All samples were blinded and presented with randomized 3-digit codes. Statistical analysis: due to the small # of panelists, a statistical analysis cannot be performed.

sweet taste = conditions: cited from earlier work; for potency curve multiplier relative to sucrose: linear potency curve similar to sucrose (DuBois 1991)
[1] = test system: sweetness and flavor perception; test: Tasting of HTS sweetener blends in citric acid solution, lemon/lime soda, almond milk, chocolate spread; assay type: in vivo, human
Procedure: Sucrose is the standard for sweetness intensity perception in the food and beverage industry. […] With regard to the following Examples 18-38, sucrose equivalent (SE) values of non-sucrose sweeteners were calculated from Dubois et al. (1991) and cross referenced with other studies (Wee, M., Tan, V., & Forde, C. (2018). A Comparison of Psychophysical Dose-Response Behaviour across 16 Sweeteners. Nutrients, 10 (11), 1632).
DE Walters, FT Orthoefer, GE DuBois, pp. 261-276. Washington, DC: Am. Chem. Soc).
An HTS sweetness concentration response curve was developed. These values were used to determine approximate sucrose equivalents for the following blending examples (Examples 18-37).
HTS ((0.0 mg/mL, 0.007 mg/mL, 0.015 mg/mL and 0.035 mg/mL) and sucrose (8% w/w, 6% w/w, 4% w/w, and 2% w/w (respectively)) were added to a citric acid solution. The sweetener mixture was compared to a control with only sucrose added to the matrix. The sweetener mix was expected to be as sweet as or sweeter than the sucrose control for this matrix. Of total perceived sweetness intensity in each of the experimental samples in Table 11, 75% comes from sucrose and 25% comes from HTS, 50% comes from sucrose and 50% comes from HTS, 25% comes from sucrose and 75% comes from HTS, respectively.
HTS ((0.0 mg/mL, 0.008 mg/mL, 0.023 mg/mL and 0.064 mg/mL) and sucrose (10% w/w, 7.5% w/w, 5% w/w, and 2.5% w/w (respectively)) were added to a lemon/lime soda. The sweetener mixture was compared to a control with only sucrose added to the matrix. The sweetener mix was expected to be as sweet as or sweeter than the sucrose control for this matrix. Of total perceived sweetness intensity in each of the experimental samples in Table 12, 75% comes from sucrose and 25% comes from HTS, 50% comes from sucrose and 50% comes from HTS, 25% comes from sucrose and 75% comes from HTS, respectively.
HTS ((0.0 mg/mL, 0.005 mg/mL, 0.007 mg/mL and 0.010 mg/mL) and sucrose (4% w/w, 3.0% w/w, 2% w/w, and 1.0% w/w (respectively)) were added to an unsweetened almond milk. The sweetener mixture was compared to a control with only sucrose added to the matrix. The sweetener mix was expected to be as sweet as or sweeter than the control for this matrix. Of total perceived sweetness intensity in each of the experimental samples in Table 13, 75% comes from sucrose and 25% comes from HTS, 50% comes from sucrose and 50% comes from HTS, 25% comes from sucrose and 75% comes from HTS, respectively.
HTS ((0.0 mg/mL, 0.008 mg/mL, 0.023 mg/mL and 0.064 mg/mL) and sucrose (45% w/w, 33.8% w/w, 23% w/w, and 11.3% w/w (respectively)) were added to a chocolate spread. The sweetener mixture was compared to a control with only sucrose added to the matrix. The sweetener mix was expected to be as sweet as or sweeter than the control for this matrix. Of total perceived sweetness intensity in each of the experimental samples in Table 14, 75% comes from sucrose and 25% comes from HTS, 50% comes from sucrose and 50% comes from HTS, 25% comes from sucrose and 75% comes from HTS, respectively.
HTS ((0.0 mg/mL, 0.007 mg/mL, 0.015 mg/mL and 0.035 mg/mL) and erythritol (11.43% w/w, 8.57% w/w, 5.71% w/w, and 2.86% w/w (respectively)) were added to a citric acid solution. The sweetener mixture was compared to a control with only erythritol added to the matrix. The sweetener mix was expected to be as sweet as or sweeter than the control for this matrix. Of total perceived sweetness intensity in each of the experimental samples in Table 15, 75% comes from erythritol and 25% comes from HTS, 50% comes from erythritol and 50% comes from HTS, 25% comes from erythritol and 75% comes from HTS, respectively.

perception of the flavor = test: Tasting of HTS flavor modifying compositions in a mock beverage matrix; assay type: in vivo, human; conditions: pH about 3, 0.25% w/w lemon/lime flavor, HTS 0.004 mg/mL
Procedure: HTS (0.004 mg/mL) and sucrose (10% w/w concentration) were added to a mock beverage matrix (citric acid, a flavor and carbonation). […] HTS and sucrose were added to hit a target of 10% w/w sucrose equivalent sweetness. The HTS/sucrose mixture was compared to an unsweetened control, an unsweetened control+0.004 mg/mL HTS, and a sucrose sweetened control (10% w/w concentration of sucrose).
(§1) HTS (0.004 mg/mL) and erythritol (13.3% w/w concentration) were added to a mock beverage matrix (citric acid, a flavor, and carbonation). […] HTS and erythritol were added to hit a target of 10% w/w sucrose equivalent sweetness. The HTS/erythritol mixture was compared to an unsweetened control, an unsweetened control+0.004 mg/mL HTS, and an erythritol sweetened control (13.3% w/w concentration).
as §1, with “sucralose (0.0387%” for “erythritol (13.3%”, “sucralose” for “erythritol”, “HTS/sucralose” for “HTS/erythritol”, “a sucralose” for “an erythritol”, “(0.0387%” for “(13.3%”
HTS (0.004 mg/mL) and stevia (0.0395% w/w concentration) were added to a mock beverage matrix (citric acid, a flavor, and carbonation). […] HTS and stevia were added to hit a target of 10% w/w sucrose equivalent sweetness. […]

[2] = nonlinear regression, read-out: EC50 (molar units)

EC50 (sweet taste response): 6.6 µg/mL | EC50 (sweet taste response; [2]): 0.3 µM
Compound: thaumatin [THN]
Relative to Sucrose (mM) (sweet taste response): 120000 | Relative to Sucrose (mg/ml) (sweet taste response): 1865 | intensity when sucrose reaches threshold level (sweet sensation; 0.045 mg/mL in water): low-moderate intensity | slope of time intensity curve (sweet sensation; 0.045 mg/mL in water vs 10% sucrose, longer peak time and more gradual/longer decline): flatter slope | maximum intensity (Imax) higher than sucrose (sweet sensation; 0.045 mg/mL protein in water vs 10% sucrose): approximately 1 point on the 15 point scale | potency, sweeter than sucrose on a molar basis (sweet sensation; time intensity experiment): approximately 120,000 × | potency, sweeter than sucrose on a weight basis (sweet sensation; time intensity experiment): ~3000 × | times sweeter than sucrose on a gram basis (sweet taste; background): 3000 times

EC50 (sweet taste response): 41.1 µg/mL | EC50 (sweet taste response; [2]): 42 µM
Compound: C=C1C[C@@]23CC[C@H]4[C@@](C)(CCC[C@@]4(C)C(=O)O[C@@H]4O[C@H](CO)[C@@H](O)[C@H](O)[C@H]4O)[C@@H]2CC[C@]1(O[C@@H]1O[C@H](CO)[C@@H](O)[C@H](O[C@@H]2O[C@H](CO)[C@@H](O)[C@H](O)[C@H]2O)[C@H]1O[C@@H]1O[C@H](CO)[C@@H](O)[C@H](O)[C@H]1O)C3 [REB, rebaudioside A]
Relative to Sucrose (mM) (sweet taste response): 857 | Relative to Sucrose (mg/ml) (sweet taste response): 300

Compound: O=C(CO)C(O)C(O)C(O)CO (stereo not shown) [Allulose, allulose]
Observations ([1]; lemon/lime soda, allulose w/w / HTS mg/mL: control 14.3%/0.0, 50/50 7.14%/0.023): Muted citrus flavor and sweetness intensity. | potency curve multiplier relative to sucrose (sweet taste): 0.7 ×

Compound: monellin
times sweeter than sucrose on a molar basis (sweet taste; background): 100,000 times

Compound: brazzein (QDKCKKVYENYPVSKCQLANQCNYDCKLDKHARSGECFYDEKRNLQCICDYCEY; UniProt P56552 1-54, looked up) [sweet protein]
times sweeter than sucrose on a gram basis (sweet taste; background): 500 times

Compound: OC[C@H]1O[C@@](CO)(O[C@H]2O[C@H](CO)[C@@H](O)[C@H](O)[C@H]2O)[C@@H](O)[C@@H]1O [SUC, sucrose]
Observations ([1]; almond milk, sucrose w/w / HTS mg/mL: control 4%/0.0, 75/25 3.0%/0.005, 50/50 2%/0.007, 25/75 1.0%/0.010): Pleasantly sweetened almond milk, creamy | Observations ([1]; citric acid solution, sucrose w/w / HTS mg/mL: control 8%/0.0, 75/25 6%/0.007, 50/50 4%/0.015, 25/75 2%/0.035): Reminiscent of sweet dessert and ice | Observations ([1]; lemon/lime soda, sucrose w/w / HTS mg/mL: control 10%/0.0, 75/25 7.5%/0.008, 50/50 5%/0.023, 25/75 2.5%/0.064): Good, sweet to sour balance and pleasant

Compound: OC[C@@H](O)[C@@H](O)CO [Erythritol, erythritol]
Observations ([1]; chocolate spread, erythritol w/w / HTS mg/mL: control 45%/0.0, 75/25 33.8%/0.008, 50/50 23%/0.023, 25/75 11.3%/0.064): Brief initial sweetness, mouth cooling, cocoa | Observations ([1]; citric acid solution, erythritol w/w / HTS mg/mL: control 11.43%/0, 75/25 8.57%/0.007, 50/50 5.71%/0.015, 25/75 2.86%/0.035): Reduced sour intensity compared to sucrose | Observations ([1]; lemon/lime soda, erythritol w/w / HTS mg/mL: control 13.30%/0.0, 75/25 9.31%/0.008, 50/50 6.90%/0.023, 25/75 3.10%/0.064): Reduced citrus flavor intensity. Strong mouth | Observations (perception of the flavor; erythritol 13.30% w/w): More sour, bitter, mineral, mouth drying, | potency curve multiplier relative to sucrose (sweet taste): 0.7 ×

Compound: OC[C@H]1O[C@H](O[C@]2(CCl)O[C@H](CCl)[C@@H](O)[C@@H]2O)[C@H](O)[C@@H](O)[C@H]1Cl [Sucralose, sucralose]
Observations ([1]; almond milk, sucralose w/w / HTS mg/mL: control 0.0053%/0.0, 75/25 0.0037%/0.005, 50/50 0.0023%/0.007, 25/75 0.0011%/0.010): Pleasantly sweetened almond milk. Little | Observations ([1]; chocolate spread, sucralose w/w / HTS mg/mL: control 0.0387%/0.0, 75/25 0.0247%/0.008, 50/50 0.0096%/0.023, 25/75 0.0030%/0.064): Reduced cocoa flavor intensity compared to sucrose | Observations ([1]; citric acid solution, sucralose w/w / HTS mg/mL: control 0.0170%/0.0, 75/25 0.0100%/0.007, 50/50 0.0053%/0.015, 25/75 0.0023%/0.035): Intense initial sweetness that overpowers acidity. | Observations ([1]; lemon/lime soda, sucralose w/w / HTS mg/mL: control 0.0387%/0.0, 75/25 0.0247%/0.008, 50/50 0.0096%/0.023, 25/75 0.0030%/0.064): Intense initial sourness. Strong sweet aftertaste. | Observations (perception of the flavor; sucralose 0.0387% w/w): Sweet linger, little flavor carry over
